Test results as given in patent publication US20250288570A1, “TREATMENT OF NEUROLOGICAL DISORDERS” (Praxis Precision Medicines, Inc., priority 2022, published 2025).

How the values were obtained:
[1] = system: locomotor activity of male CD-1 mice; assay: Spontaneous locomotor activity (sLMA) test, Example 8; assay type: in vivo, mouse
Procedure: The spontaneous locomotor activity (sLMA) test is a validated model for evaluating the potential effects of a compound on motor function. This study evaluated the effect of Compound 1 on locomotor activity of male CD-1 mice. Doses of Compound 1 used were 3 mg/kg, 5.6 mg/kg, 10 mg/kg and 20 mg/kg administered orally (p.o.).
Male CD-1 mice (Vital River, Beijing, China) approximately 6 weeks old were used for the study. Body weights were between 25 g and 35 g at the time of experiment.
Treatment was conducted using Compound 1 and 35% 2-hydroxypropyl-β-cyclodextrin (35% HPBCD, used as a negative control). Compound 1 stock solution was prepared fresh each experiment day in 35% HPBCD and protected from light. The stock solution was diluted with vehicle for lower doses.
The spontaneous locomotor activity (sLMA) test for each study was carried out over three days, with mice from each treatment group tested each day. The treatment groups included mice dosed with vehicle (35% HPBCD) and with Compound 1 at the dose of 3 mg/kg, 5.6 mg/kg, 10 mg/kg and 20 mg/kg. Mice were randomly assigned into one of the treatment groups.
A single dose of Compound 1 (3 mg/kg, 5.6 mg/kg, 10 mg/kg and 20 mg/kg) or vehicle (35% HPBCD) was administered to mice via oral gavage 30 minutes prior to testing. Immediately prior to conducting the sLMA test, a brief neurological assessment was performed. Each animal was visually assessed for sedation and ataxia.
Activity was recorded by overhead cameras and was analyzed offline. Video tracking analysis software was used to determine total distance travelled in millimeters. Distance travelled was also calculated in 5-minute bins.
All statistical analyses were conducted using GraphPad Prism 9.3. Means were combined and standard error was calculated using the Satterthwaite Approximation to combined standard deviations. […] TD50 and TC50 values were calculated from these fit curves.

human Nav1.6 = biological target: T1, human Nav1.6 (Homo sapiens, UniProt Q9UQD0); assay: Peak INa tonic block (TB), automated patch clamp in HEK cells; assay type: cell-based; details: ratio of peak INa (TB) to persistent INa IC50
T1 construct: HEK-293 cell lines stably expressing human Nav1.6 (NP_055006) were used; expressed in transfected cells

[2] = system: scPTZ-induced seizures in CD-1 mice; assay: Subcutaneous pentylenetetrazole (scPTZ) induced seizure test; assay type: in vivo, mouse
Procedure: The subcutaneous pentylenetetrazole (scPTZ) test is a validated model for evaluating the anti-seizure potential of compounds. The positive control valproate is an approved anti-seizure medicine (ASM). This study evaluated the efficacy of Compound 1 to attenuate scPTZ-induced seizures in wildtype CD-1 mice. Doses of Compound 1 used were 1 mg/kg, 3 mg/kg, 6 mg/kg and 10 mg/kg administered orally. Valproate (600 mg/kg, administered intraperitoneally) was used as a positive control as it has a broad spectrum of anticonvulsant activity.
Male CD-1 mice (Charles River Laboratories, St. Constant, Quebec, Canada) were used for the study. Body weights at the time the experiment was carried out were between 27 and 39 grams. The mice were group-housed in polycarbonate cages according to standard operating procedures. Animals were maintained on a 12 hour light/12 hour dark cycle, with all experimental activities occurring during the light phase. Food and water were available ad libitum. […]
Immediately prior to the administration of PTZ, a brief neurological assessment was performed. Each animal was visually assessed and received a score from 0 to 3 according to the following scoring system: neurological score of 0 corresponds to a normal status; neurological score of 1 corresponds to a modest decrease in spontaneous activity; neurological score of 2 corresponds to a marked decrease in spontaneous activity; and neurological score of 3 corresponds to loss of righting reflex.
PTZ (85 mg/kg, 10 mL/kg) was administered as a subcutaneous (s.c.) injection. […] The latency to generalized clonic seizure was recorded. Seizures were also scored using a seizure scale. Mice were scored with the following stages: 0) no seizure activity, 1) myoclonic jerks with “flat body posture”, 2) generalized clonus with loss of posture lasting ˜2 s, 3) generalized clonus with loss of posture lasting ˜10 s or 4) tonic hindlimb extension. Seizure scores were used as a qualitative measure to assess seizure incidence and were not used as a quantitative measure of pharmacological activity. […]

[3] = system: multiple NaV isoforms and orthologs; assay: ATX-II induced persistent INa of multiple NaV isoforms and orthologs; assay type: cell-based

T1 sequence (Q9UQD0 whole entry): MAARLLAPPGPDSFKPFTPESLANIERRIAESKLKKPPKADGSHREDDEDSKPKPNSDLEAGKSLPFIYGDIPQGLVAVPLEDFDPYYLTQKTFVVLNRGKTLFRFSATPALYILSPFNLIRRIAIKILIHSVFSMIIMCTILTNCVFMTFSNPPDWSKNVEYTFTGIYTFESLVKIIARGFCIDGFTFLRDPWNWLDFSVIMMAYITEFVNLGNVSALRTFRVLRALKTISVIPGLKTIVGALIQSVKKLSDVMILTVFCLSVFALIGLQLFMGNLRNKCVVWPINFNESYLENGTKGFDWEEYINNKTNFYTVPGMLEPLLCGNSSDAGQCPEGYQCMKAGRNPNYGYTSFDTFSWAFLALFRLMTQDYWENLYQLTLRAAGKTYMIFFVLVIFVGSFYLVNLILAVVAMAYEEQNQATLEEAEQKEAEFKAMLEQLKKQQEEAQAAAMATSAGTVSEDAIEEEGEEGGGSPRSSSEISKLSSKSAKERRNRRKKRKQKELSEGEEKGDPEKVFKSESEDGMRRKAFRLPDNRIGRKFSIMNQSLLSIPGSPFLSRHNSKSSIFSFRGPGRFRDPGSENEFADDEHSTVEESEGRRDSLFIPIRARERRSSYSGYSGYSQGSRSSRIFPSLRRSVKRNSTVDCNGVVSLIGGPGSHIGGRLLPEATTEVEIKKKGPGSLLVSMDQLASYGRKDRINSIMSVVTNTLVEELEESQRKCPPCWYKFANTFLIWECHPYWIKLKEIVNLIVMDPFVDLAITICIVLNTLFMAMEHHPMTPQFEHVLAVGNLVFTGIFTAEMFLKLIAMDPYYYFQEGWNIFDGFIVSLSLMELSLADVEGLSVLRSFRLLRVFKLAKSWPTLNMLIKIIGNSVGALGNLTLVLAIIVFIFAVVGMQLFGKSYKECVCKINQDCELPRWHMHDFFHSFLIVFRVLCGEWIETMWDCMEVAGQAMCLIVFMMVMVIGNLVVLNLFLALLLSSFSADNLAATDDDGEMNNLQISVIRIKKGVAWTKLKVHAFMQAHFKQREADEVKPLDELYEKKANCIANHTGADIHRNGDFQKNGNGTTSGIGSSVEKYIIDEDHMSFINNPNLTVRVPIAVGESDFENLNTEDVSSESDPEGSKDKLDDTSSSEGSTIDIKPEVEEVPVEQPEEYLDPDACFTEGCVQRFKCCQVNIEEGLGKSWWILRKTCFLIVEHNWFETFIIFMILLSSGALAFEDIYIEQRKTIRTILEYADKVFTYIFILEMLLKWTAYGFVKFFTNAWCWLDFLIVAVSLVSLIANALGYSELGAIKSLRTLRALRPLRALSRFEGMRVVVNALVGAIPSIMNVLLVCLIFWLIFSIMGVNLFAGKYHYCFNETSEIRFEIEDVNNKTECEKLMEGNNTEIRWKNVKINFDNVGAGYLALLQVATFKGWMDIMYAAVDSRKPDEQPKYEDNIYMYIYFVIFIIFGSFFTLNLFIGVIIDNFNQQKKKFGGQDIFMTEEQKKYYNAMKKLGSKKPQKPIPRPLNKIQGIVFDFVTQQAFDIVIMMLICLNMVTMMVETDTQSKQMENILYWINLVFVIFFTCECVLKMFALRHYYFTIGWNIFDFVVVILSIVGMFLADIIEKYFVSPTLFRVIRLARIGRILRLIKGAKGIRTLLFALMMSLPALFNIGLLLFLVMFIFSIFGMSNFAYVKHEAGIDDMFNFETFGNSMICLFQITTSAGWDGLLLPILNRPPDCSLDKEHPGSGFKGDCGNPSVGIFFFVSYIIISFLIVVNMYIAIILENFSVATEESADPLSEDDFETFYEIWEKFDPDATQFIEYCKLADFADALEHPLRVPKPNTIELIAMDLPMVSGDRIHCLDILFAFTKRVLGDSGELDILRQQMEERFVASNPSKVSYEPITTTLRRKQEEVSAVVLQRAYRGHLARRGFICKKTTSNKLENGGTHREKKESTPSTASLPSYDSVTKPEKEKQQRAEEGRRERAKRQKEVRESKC

Structure (SMILES): CCOC(F)(F)c1nnc2ccc(-c3cnc(OCC(F)(F)F)c(F)c3)cn12 [Compound 1]
- sedation or ataxia (in words) ([1]; 3 mg/kg and 5.6 mg/kg): No sedation or ataxia was observed
- mice with sedation and/or ataxia ([1]; 10 mg/kg): five
- mice with sedation and/or ataxia ([1]; 20 mg/kg): eight
- sLMA TD50 ([1]; p.o., distance travelled): 10.4 mg/kg
- Peak INa TB Ratio to Pers. INa (human Nav1.6): 68
- spontaneous activity (in words) ([2]; 10 mg/kg): modest reduction in spontaneous activity was observed in a single mouse
- protection in PTZ acute seizure model (in words) ([2]; 1-10 mg/kg p.o.): protected from generalized clonus
- neurological scores (in words) ([2]; dose range tested): Neurological scores for all but one mouse treated with Compound 1 were normal
- inhibition of persistent INa at other isoforms and orthologs (in words) [3]: inhibits ATX-II induced persistent INa expressed by multiple NaV isoforms and orthologs
